Paper PMC4746303, “Inactivation of Anopheles gambiae Glutathione Transferase ε2 by Epiphyllocoumarin” (Biochemistry Research International, 2016)

What was measured:
[1] = biological target: T1, Glutathione transferase epsilon 2 (AgGSTε2) (Anopheles gambiae, UniProt Q9GPL8); test: time-dependent inactivation of purified enzyme at […] (positive control), half-life […] min; type: biochemical
T1 construct: recombinant AgGSTε2 expressed from pET3a in E. coli BL21 (DE3) pLysS
T1 sequence (Q9GPL8 1-221): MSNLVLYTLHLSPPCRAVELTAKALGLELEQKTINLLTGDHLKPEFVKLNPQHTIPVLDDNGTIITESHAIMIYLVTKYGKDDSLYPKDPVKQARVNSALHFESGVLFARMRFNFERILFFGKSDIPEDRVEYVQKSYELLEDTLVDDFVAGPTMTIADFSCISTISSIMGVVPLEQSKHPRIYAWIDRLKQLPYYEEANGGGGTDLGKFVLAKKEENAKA

[2] = biological target: T1, Glutathione transferase epsilon 2 (AgGSTε2); test: time- and concentration-dependent inactivation of purified enzyme, GST activity (CDNB/GSH) assay; KI […], kinact […] min^-1; type: biochemical

KI (inactivation) [2] [µM] | Compound | time-dependent inactivation of purified enzyme at 25 μM (positive control), half [1] [min]
– | C=C(CC)C(=O)c1ccc(OCC(=O)O)c(Cl)c1Cl [ETA, ethacrynic acid] | 22
7.5 ± 2.1 | O=c1ccc2c3c(c(O)cc2o1)C[C@@H](O)[C@@H](c1ccc(O)c(O)c1)O3 [Tral 1, epiphyllocoumarin] | –
